Data reported in ChEMBL document CHEMBL1201862, “PubChem BioAssay data set” (2004).
The source made the active and inactive calls.

Legend:
[1] = target: T1, Ubiquitin-conjugating enzyme E2 N (Homo sapiens, UniProt P61088); format: functional;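 also: Dose-response confirmation in a TR-FRET assay detecting UBC13-driven polyubiquitin chain formation, inhibition measured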
T1 sequence (P61088 whole entry): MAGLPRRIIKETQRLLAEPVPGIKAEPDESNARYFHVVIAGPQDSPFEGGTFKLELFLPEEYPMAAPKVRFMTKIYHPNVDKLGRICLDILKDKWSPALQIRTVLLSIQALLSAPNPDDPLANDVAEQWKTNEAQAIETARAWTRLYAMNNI

[2] = cytotoxicity toward NIH3T3 fibroblasts, dose response, counter-screen, cell-based, ATP luminescence, mouse fibroblasts (AID 2010); format: functional;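 also: cells exposed to compound for about 90 hours before reading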
Vero = assay: cells; format: functional; settings: Chlorocebus sabaeus
[3] = inhibitors of intracellular T. cruzi replication, confirmation, NIH3T3 host cells, beta-gal luminescence (AID 2044); format: functional, cell-based;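 also: intracellular parasites grown in NIH/3T3 mouse fibroblasts as host cells; luminescent beta-galactosidase reporter signal from transgenic T. cruzi replicating inside host cells; inhibitors lower the luminescence signal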
Cytochrome P450 3A4 = Cytochrome P450 3A4 (Homo sapiens, UniProt P08684);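 also: CYP3A4 tested as one member of a cytochrome P450 panel screen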
Streptococcus = assay: Group A Streptococcus viability loss, dose response, counter-screen for streptokinase expression inhibitor project, luminescence, BacTiterGlo (AID 1915); format: functional, organism-based;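 also: potency for reduction of bacterial viability or growth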
Cytochrome P450 2C9 = Cytochrome P450 2C9 (Homo sapiens, UniProt P11712)
Streptokinase A = target: T2, Streptokinase A (Streptococcus pyogenes serotype M1, UniProt P10520); assay: S. pyogenes streptokinase expression inhibitors, potency, dose response, plasminogen activation absorbance, OD405 (AID 1914); format: functional, Streptococcus pyogenes M1 GAS;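 also: secreted streptokinase activity via plasminogen activation per viability signal from cell pellet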
T2 sequence (P10520 whole entry): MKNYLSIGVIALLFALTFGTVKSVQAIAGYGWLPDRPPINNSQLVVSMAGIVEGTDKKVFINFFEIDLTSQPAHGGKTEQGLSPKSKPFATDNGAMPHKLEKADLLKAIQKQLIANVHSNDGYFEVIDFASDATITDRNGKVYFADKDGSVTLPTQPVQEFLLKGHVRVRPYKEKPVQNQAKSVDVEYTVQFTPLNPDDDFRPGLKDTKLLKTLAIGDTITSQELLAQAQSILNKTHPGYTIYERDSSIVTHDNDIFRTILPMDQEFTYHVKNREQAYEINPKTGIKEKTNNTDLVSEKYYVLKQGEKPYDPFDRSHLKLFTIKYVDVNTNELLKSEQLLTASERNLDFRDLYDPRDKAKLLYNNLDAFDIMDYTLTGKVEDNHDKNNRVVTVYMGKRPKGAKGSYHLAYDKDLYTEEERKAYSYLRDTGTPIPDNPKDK

Protein skinhead-1 = target: T3, Protein skinhead-1 (Caenorhabditis elegans, UniProt P34707); format: functional
T3 sequence (P34707 whole entry): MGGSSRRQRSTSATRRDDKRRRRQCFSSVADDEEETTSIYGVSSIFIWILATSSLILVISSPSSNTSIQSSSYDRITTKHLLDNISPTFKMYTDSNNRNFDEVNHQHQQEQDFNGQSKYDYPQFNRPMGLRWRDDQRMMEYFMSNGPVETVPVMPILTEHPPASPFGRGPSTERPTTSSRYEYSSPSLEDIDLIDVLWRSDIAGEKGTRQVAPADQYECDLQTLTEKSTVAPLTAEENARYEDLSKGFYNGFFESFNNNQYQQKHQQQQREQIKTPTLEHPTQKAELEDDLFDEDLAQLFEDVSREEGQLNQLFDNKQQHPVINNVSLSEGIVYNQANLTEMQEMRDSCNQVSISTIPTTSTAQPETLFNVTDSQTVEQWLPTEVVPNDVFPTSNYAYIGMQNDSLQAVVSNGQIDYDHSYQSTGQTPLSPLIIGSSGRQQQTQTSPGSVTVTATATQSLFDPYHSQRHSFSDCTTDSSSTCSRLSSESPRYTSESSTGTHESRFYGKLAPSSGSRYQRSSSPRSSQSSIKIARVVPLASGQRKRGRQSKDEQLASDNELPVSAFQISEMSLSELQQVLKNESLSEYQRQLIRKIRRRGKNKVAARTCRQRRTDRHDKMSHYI

[4] = Shn3 3'UTR reporter inhibitors, dose response, cell-based, Clone20 osteoblasts, firefly luciferase, cherry-picked (AID 624132); format: functional;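 also: firefly luciferase luminescence from reporter carrying the Shn3 3'UTR in osteoblasts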
[5] = growth suppression of PTEN-null colon cells, dose response, cell-based, HCT116 PTEN knockout (AID 1047); format: functional;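 also: HCT116 colon tumor cells with PTEN knocked out; cells exposed to compound for 60 hours before readout; potency for loss of cell viability measured by luminescence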
[6] = growth suppression of beta-catenin-knockout colon cells, dose response, cell-based, HCT116, human colon tumor (AID 1045); format: functional;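 also: HCT116 colon tumor cells with beta catenin knocked out; cells exposed to compound for 60 hours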
[7] = target: T4, Replicative DNA helicase DnaB (Mycobacterium tuberculosis, UniProt P9WMR3); assay: DnaB intein splicing inhibitors, dose response, biochemical, cell-free fluorescence (AID 449749); format: functional
T4 sequence (P9WMR3 whole entry): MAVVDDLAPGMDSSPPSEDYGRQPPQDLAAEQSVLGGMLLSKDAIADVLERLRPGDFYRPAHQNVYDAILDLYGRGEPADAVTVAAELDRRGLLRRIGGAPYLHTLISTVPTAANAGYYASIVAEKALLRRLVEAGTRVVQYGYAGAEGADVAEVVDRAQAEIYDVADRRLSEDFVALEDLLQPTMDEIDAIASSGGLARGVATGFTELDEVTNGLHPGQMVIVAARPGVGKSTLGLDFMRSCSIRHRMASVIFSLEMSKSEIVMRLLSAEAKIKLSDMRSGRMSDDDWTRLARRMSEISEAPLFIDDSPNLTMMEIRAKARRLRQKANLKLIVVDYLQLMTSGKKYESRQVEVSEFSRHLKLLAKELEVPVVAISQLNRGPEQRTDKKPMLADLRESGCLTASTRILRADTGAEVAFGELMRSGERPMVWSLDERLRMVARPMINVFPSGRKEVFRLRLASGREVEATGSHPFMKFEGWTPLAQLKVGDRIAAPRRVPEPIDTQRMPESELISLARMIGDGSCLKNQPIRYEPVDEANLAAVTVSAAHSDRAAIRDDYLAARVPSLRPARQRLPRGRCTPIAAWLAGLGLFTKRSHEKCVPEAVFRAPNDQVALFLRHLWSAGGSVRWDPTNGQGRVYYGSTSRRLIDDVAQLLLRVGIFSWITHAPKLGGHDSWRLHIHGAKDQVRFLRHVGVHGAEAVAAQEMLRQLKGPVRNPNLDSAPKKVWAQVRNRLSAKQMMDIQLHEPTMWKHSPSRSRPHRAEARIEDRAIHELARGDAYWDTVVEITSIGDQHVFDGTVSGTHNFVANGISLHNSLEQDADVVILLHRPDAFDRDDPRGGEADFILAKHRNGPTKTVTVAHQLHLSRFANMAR

Protein RecA = target: T5, Protein RecA (Mycobacterium tuberculosis, UniProt P9WHJ3); assay: Fluorescence Cell-Free Homogeneous Dose Retest to Identify Inhibitors of RecA-Intein Splicing Activity. [Related pubchem assays (depositor defined):AID2097, AID2223, AID489010, AID492950]; format: functional
T5 sequence (P9WHJ3 whole entry): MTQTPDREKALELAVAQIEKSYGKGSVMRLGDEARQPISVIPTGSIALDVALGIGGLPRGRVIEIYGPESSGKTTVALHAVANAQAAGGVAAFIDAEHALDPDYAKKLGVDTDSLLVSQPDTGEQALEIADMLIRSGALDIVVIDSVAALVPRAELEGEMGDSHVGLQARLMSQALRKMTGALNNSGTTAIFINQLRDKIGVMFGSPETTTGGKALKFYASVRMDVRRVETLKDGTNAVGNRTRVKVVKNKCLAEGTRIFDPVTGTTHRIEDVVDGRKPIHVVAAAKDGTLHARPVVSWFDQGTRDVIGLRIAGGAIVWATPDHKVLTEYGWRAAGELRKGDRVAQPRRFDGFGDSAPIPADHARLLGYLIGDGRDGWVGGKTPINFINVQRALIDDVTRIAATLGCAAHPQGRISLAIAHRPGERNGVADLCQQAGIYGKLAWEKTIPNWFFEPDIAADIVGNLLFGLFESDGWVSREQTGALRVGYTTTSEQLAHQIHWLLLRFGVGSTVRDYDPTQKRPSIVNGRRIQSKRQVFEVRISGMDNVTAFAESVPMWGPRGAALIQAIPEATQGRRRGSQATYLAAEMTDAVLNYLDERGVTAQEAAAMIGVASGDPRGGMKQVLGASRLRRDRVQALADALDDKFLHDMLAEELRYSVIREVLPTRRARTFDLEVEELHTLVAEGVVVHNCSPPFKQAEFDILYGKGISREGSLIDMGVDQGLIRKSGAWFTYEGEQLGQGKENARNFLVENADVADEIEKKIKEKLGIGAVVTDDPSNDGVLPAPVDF

[8] = control 3'UTR Renilla luciferase suppression, dose response, counter-screen for Shn3 inhibitor project, cell-based, Clone20-Shn3RL, cherry-picked (AID 624133); format: functional
[9] = HepG2 cell cytotoxicity, dose response, cytotoxicity control for Shn3 inhibitor project, CellTiter-Glo, cherry-picked (AID 624134); format: functional, cell-based
[10] = system: Streptococcus sp. 'group A'; assay: growth inhibition of control SK(-) GAS strain, dose response, counter-screen for streptokinase expression inhibitor project, luminescence, kanamycin, BacTiterGlo, confirmation (AID 1900); format: functional, organism-based

Cytochrome P450 3A4, sequence (P08684 whole entry): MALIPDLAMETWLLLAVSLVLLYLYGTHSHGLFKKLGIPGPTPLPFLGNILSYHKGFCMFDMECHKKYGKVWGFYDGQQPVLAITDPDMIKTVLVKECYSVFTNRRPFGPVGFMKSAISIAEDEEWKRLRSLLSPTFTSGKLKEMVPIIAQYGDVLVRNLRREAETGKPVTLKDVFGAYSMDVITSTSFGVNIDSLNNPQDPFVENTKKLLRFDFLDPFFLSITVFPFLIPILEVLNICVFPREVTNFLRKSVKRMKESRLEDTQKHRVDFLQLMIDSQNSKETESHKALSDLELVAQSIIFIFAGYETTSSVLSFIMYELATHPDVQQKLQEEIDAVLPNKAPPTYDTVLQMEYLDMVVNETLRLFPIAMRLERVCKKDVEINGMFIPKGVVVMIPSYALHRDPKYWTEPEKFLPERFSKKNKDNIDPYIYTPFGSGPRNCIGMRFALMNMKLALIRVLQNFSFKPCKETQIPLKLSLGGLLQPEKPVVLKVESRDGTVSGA
Cytochrome P450 2C9, sequence (P11712 whole entry): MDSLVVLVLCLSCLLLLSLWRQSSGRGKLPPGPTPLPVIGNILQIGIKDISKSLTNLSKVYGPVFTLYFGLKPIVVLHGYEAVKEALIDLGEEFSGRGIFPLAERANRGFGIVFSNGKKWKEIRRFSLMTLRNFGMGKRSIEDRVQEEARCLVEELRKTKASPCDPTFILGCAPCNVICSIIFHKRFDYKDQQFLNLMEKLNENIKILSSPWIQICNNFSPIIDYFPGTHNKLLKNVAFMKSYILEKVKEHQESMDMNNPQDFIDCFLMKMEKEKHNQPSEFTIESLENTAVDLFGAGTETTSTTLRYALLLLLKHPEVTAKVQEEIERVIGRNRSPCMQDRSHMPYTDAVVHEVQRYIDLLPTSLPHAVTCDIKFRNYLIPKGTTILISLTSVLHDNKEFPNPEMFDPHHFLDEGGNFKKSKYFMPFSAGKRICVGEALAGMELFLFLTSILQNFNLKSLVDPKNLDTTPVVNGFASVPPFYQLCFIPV

With `CC1CCN(c2c(NCc3ccc(C(=O)N4CCN(C5CCCCC5)CC4)cc3)c(=O)c2=O)CC1` the IC50 [1] was > 20 µM (inactive).

For `Cc1sc(NC(=O)c2ccco2)c(C(c2ccccc2)N2CCC(C)CC2)c1C` (stereo not given), the EC50 [2] was > 60 µM (not active), the CC50 (Vero) was 14.1 µM (active) and the EC50 [3] was 1.09 µM (active).

With `CCc1sc(N(C(=O)Cc2ccccc2)c2cccc(F)c2)nc1-c1ccc(C)cc1` the AC50 (Cytochrome P450 3A4) was 17.8 µM (inconclusive), the EC50 (Streptococcus) was > 150 µM (not active) and the AC50 (Cytochrome P450 2C9) was 6.31 µM (inconclusive). For the same molecule, the EC50 (Streptokinase A) was 32.6 µM (active) and the IC50 (Protein skinhead-1) was > 100 µM (inactive).

In the case of `COc1ccccc1/C=C1\CCCC2=C1Nc1nnnn1C2c1ccccc1OC` (stereo not given), the AC50 [4] is reported as 36 µM (active), the EC50 [5] is reported as 8.85 µM (active) and the EC50 [6] is reported as 6.96 µM (active).

In the case of `Cc1cc2ccccc2n1CCNC(=O)C1CC1`, the IC50 (Protein skinhead-1) is reported as > 100 µM (inactive).

For `CCOC(=O)c1nnc(-c2ccccc2)nc1Sc1c(Cl)cccc1Cl`, the AC50 [7] was 2.22 µM (active), the EC50 [5] was 26.9 µM (active) and the EC50 (Protein RecA) was > 380 µM (inconclusive). For the same molecule, the EC50 [6] was 27.7 µM (active).

With `O=C(/C=C/c1ccc(OCc2ccccc2)c(OCc2ccccc2)c1)c1cccnc1` the AC50 [8] was 19.3 µM (active), the AC50 [4] was 5.19 µM (active) and the AC50 [9] was 40.5 µM (active). For the same molecule, the EC50 [5] was 8.72 µM (active) and the EC50 [6] was 6.92 µM (active).

For `O=C(CSc1nc[nH]n1)Nc1ccc(Cl)c(Cl)c1`, the IC50 (Protein skinhead-1) was > 100 µM (inactive).

With `O=C(/C=C/c1ccncc1)c1ccc2c(c1)OCCO2` the CC50 (Vero) was > 25 µM (active).

In the case of `Cc1ccc(-c2noc(CCC(=O)NCC3CCN(Cc4cccc(C)c4)CC3)n2)cc1`, the IC50 [1] is reported as > 20 µM (inactive).

With `O=C(CSc1nnc(COc2cccc3ccccc23)o1)N1c2ccccc2CCc2ccccc21` the IC50 (Protein skinhead-1) was > 100 µM (inactive).

In the case of `Cc1c(C)n(Cc2ccc(F)cc2)c2ccc(C(=O)N3CCN(c4ccccn4)CC3)cc12`, the EC50 (Streptococcus) is reported as 28.4 µM (active), the EC50 (Streptokinase A) is reported as 146 µM (inconclusive) and the EC50 [10] is reported as 16.5 µM (active). The IC50 (Protein skinhead-1) was > 100 µM (inactive).
